Article doi:10.1101/2023.02.14.528391v1 (biorxiv, 2023)
Read-outs that look alike come from different tables or passages of the source.

Assays:
hERG potassium channel [1] = target: T1, hERG potassium channel (Homo sapiens, UniProt Q12809); assay: in vitro
hERG potassium channel [2] = target: T1, hERG potassium channel; assay: biochemical; conditions: hERG / IC50 (nM)
hERG potassium channel [3] = target: T1, hERG potassium channel; assay: biochemical; conditions: hERG / Ki (nM), Synthesis=NBI

T1 sequence (Q12809 whole entry): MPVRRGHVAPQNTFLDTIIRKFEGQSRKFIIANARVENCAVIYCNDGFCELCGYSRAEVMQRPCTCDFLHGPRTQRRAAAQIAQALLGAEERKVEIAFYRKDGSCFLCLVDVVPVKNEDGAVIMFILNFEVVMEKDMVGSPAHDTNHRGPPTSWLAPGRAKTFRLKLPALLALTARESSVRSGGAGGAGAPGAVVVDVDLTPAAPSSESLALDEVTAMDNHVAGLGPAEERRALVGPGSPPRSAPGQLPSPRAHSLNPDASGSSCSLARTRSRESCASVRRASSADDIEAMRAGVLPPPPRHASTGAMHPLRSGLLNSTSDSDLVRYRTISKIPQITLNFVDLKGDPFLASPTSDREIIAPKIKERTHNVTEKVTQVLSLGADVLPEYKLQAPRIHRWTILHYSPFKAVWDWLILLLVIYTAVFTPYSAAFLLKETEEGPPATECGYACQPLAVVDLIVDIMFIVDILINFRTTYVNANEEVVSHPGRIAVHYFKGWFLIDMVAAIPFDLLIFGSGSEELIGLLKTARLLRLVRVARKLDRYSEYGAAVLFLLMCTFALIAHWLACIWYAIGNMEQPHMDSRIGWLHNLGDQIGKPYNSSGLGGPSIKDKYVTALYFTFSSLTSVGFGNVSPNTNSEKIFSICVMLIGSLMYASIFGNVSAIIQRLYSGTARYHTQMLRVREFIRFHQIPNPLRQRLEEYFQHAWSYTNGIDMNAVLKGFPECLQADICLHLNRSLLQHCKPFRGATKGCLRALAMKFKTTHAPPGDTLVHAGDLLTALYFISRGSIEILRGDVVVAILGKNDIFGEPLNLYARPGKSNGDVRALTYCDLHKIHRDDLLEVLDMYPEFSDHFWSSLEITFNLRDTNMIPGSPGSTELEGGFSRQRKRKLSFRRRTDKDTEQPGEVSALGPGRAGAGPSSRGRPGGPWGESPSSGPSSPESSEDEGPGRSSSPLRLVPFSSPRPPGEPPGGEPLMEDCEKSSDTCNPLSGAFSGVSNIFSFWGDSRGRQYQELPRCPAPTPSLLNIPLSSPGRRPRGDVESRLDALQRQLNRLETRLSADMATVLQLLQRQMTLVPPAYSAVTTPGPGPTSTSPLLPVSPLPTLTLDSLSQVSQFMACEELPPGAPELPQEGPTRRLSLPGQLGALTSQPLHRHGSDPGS

| Compound | inhibition at 10 µM (hERG potassium channel [1]; % inhibition) [%] | further results |
| --- | --- | --- |
| Cc1cccc2c(C(=O)N(CCN(C)C)c3ccccn3)cnn12 [s_11____17828754____16474570] | 20.8 |  |
| CN(C)CCN(Cc1ccccc1)C(=O)c1ncccc1Cl [s_11____117338____10437082] | 9.12 |  |
| CN(Cc1sccc1Cl)C[C@H]1CCCCN1C(=O)c1ncccc1F | 27.4 |  |
| COc1c(Cl)cc(C(=O)N(CCN(C)C)C2CCCCC2)c2ncccc12 [s_22____4639446____15428718] | 42.7 |  |
| CC(=Cc1ccccc1Cl)C(=O)N(CCN(C)C)c1ccccn1 [s_11____17828754____7832710] | 48.4 |  |
| CN(C)CCCn1nc(-c2cccs2)c2ccccc2c1=O [s_49____14518112____101877] | 81.7 | IC50 (hERG potassium channel [2]; Synthesis=Enamine): 1340 nM |
| CN(C)CCc1nc2ccccc2n1Cc1ccc(F)cc1 [GMD_9161] | 6.04 |  |
| Cc1ccc(-c2nn(CN(C)CCC3CCOCC3)c(=O)c3ccccc23)cc1 [m_26____7043632____590162] | 7.12 |  |
| CN(C)CCCn1nc(-c2cccs2)c2ccccc2c1=O [GMD_12264] |  | IC50 (hERG potassium channel [2]; Synthesis=NBI): 1890 nM; Ki (hERG potassium channel [3]): 1340 nM |
| CN(C)CCN(Cc1ccccc1F)C(=O)c1c(Cl)ccc2cccnc12 [s_527____7348186____16891240] | 59.1 |  |
| CN(C)CCN(Cc1nccn1C)c1nc(-c2ccccn2)nc2sccc12 [s_27____16636988____12321872] | 91.6 |  |
| CN(C)CCCN(Cc1ccc(Cl)c(Cl)c1)c1cnc2ccccc2n1 [s_27____7425384____262944] | 93.6 |  |
| CN(CCCN(C)C(=O)c1ccnc2ccsc12)C(=O)c1cncc(Cl)c1 | 2.59 |  |
| CN(C)CCN(Cc1ccccc1F)C(=O)N1CCSc2ncccc21 [s_272164____9389146____17325014] | 37.3 |  |
| CN(C)CCc1nc2ccccc2n1CCc1ccccc1 [GMD_12737] | 45.4 |  |
| CC(=Cc1ccccn1)C(=O)N(CCN(C)C)c1ccccc1 [s_11____2264406____11762612] | 18.8 |  |
| CN(C)CCN(Cc1nccn1C)c1nc2cc(Cl)ccc2s1 [s_27____16636988____14057938] | 89.1 |  |
| Cc1ccc(C(=O)N(CCN(C)C)Cc2ccccc2)c2ncccc12 [s_527____284286____13308974] | 69.2 |  |
| CN(C)CCCN(Cc1ccc(Cl)c(Cl)c1)C(=O)c1nccc2ncccc12 [s_527____1500312____14775532] | 40 |  |
| CN(C)CCN(Cc1cccs1)Cc1cc2cnn(C)c2nc1Cl [s_270004____10206112____16971162] | 78.3 |  |
| CN(C)CCOc1ccccc1-c1cn(C)c2cccnc12 [s_271570____11676396____16733458] | 63.8 |  |
| CN(C)CCN(CCCc1ccccc1)C(=O)c1cn(C)c2ccccc12 [s_22____2161756____115777] | 63.8 |  |
| CN(C)CCCn1nc(-c2ccc(F)cc2)c2ccccc2c1=O [s_49____14518112____1114614] | 80.8 | IC50 (hERG potassium channel [2]; Synthesis=Enamine): 2100 nM |
| CN(C)CCN(CCc1ccccc1)C(=O)c1csc2cc(Cl)cnc12 [s_11____764634____11618976] | 88.2 |  |
| CN(C)CCN(Cc1ccc(F)c(F)c1)C(=O)c1ccnc(Cl)c1Cl [s_22____2224104____12421166] | 23.5 |  |
| CN(C)CCN(Cc1ccccc1F)C(=O)c1cccc2ncccc12 [s_527____7348186____237975] | 1.57 |  |

| Compound | inhibition at 10 µM (hERG potassium channel [1]; % inhibition) [%] | further results |
| --- | --- | --- |
| CN(C)CCN(Cc1ccccc1)c1nc2cccc(F)c2s1 [s_27____7100858____10689034] | 83 | IC50 (hERG potassium channel [2]; Synthesis=Enamine): 2240 nM |
| CN(C)CCc1nc2ccccc2n1Cc1ccccc1Cl [GMD_7286] | 51.3 |  |
| CSc1ncccc1-c1nn(CCN(C)C)c(=O)c2ccccc12 [NBI1100648] | 44.2 |  |
| CN(C)CCN(Cc1ccc(F)cc1F)C(=O)c1cc(Br)ncc1Cl [s_11____4836304____10207328] | 28.7 |  |
| CN(C)CCN(Cc1ccccc1)C(=O)N1CCSc2ccncc21 [s_272164____9389444____9363352] | 31.1 |  |
| COc1cc(C(=O)N(CCN(C)C)c2ccccc2)c2ncccc2c1 [s_11____2264406____15769708] | 22.5 |  |
| CN(C)CCCn1nc(-c2ccncc2)c2ccccc2c1=O [NBI1099478] | 23.4 |  |
| CN(C)CCN(Cc1ccccc1)Cc1c(Cl)cccc1-n1ccnc1 [s_270004____10205888____17057166] | 71.1 |  |
| CN(C)CCn1nc(-c2ccccc2)c2ccccc2c1=O [GMD_24043] | 60.1 |  |
| CN(CCN(C)C(=O)c1cccnc1N(C)C)Cc1cccc(Cl)c1 | 17.1 |  |
| CN(C)CCn1nc(-c2cccnc2)c2ccccc2c1=O [GMD_36918] | 2.87 |  |
| CN(C)CCN(CCO)Cc1csc(-c2c(Cl)cccc2Cl)n1 [s_2230____15141024____14479640] | 9.6 |  |
| CN(C)CCn1nc(-c2cccs2)c2ccccc2c1=O [NBI1099533] | 9.92 |  |
| CN(C)CCCn1nc(-c2ccc(Cl)cc2)c2ccccc2c1=O [s_49____14518112____88929] |  | IC50 (hERG potassium channel [2]; Synthesis=Enamine): 909 nM |
| Cc1ccc2cc(C(=O)N(CCN(C)C)Cc3ccccc3F)ccc2n1 [s_527____7348186____7593650] | 21.8 |  |
| CN(C)CCn1nc(-c2ccncc2)c2ccccc2c1=O [NBI1099472] | 15 |  |
| CN(C)CCN(C(=O)c1cccc2ncccc12)c1ccccc1 [s_11____2264406____15260550] | 21.8 |  |
| CN(C)CCCSc1nnc(-c2cnccn2)n1-c1ccc(Cl)cc1 [s_7____7285292____9475634] | 32.1 |  |
| CN(C)c1ncccc1CN1CCN(C(=O)c2c(Cl)cccc2Cl)CC1 [s_270004____8133704____10229386] | 2.59 |  |
| CN(C)CCN(Cc1ccccc1F)C(=O)c1nccc2ncccc12 [s_527____7348186____14775532] | 33.1 |  |
| CN(C)CCCN(Cc1ccc(Cl)c(Cl)c1)C(=O)c1nccnc1Cl [s_22____1500308____12360522] | 57.7 |  |
| CN(C)CCN(Cc1cccc(Cl)c1)C(=O)N1CCSc2ccncc21 [s_272164____9389444____9369516] | 75.9 |  |
| CN(C)CCN(Cc1ccccc1F)C(=O)c1cccc2cccnc12 [s_11____4836284____101939] | 55 |  |
| CN(C)CCC(Sc1nccn1Cc1ccccn1)c1ccccc1 (centres unmarked) [s_7____4839872____13940010] | 5.79 |  |
| CN(C)CCN(Cc1ccccc1)C(=O)c1cc(-c2ccccn2)ccc1Cl [s_527____284286____7794996] | 55 |  |
| CN(C)CCc1nc2ccccc2n1Cc1ccc(F)c(F)c1 [GMD_9634] | 16.1 |  |

| Compound | inhibition at 10 µM (hERG potassium channel [1]; % inhibition) [%] | further results |
| --- | --- | --- |
| CN(C)CCN(Cc1ccccc1F)C(=O)Cc1c[nH]c2nccc(Cl)c12 [s_22____1322108____13142180] |  | inhibition at 10 µM (hERG potassium channel [1]): 38.7% |
| CN(C)CCn1nc(-c2cncc(Cl)c2)c2ccccc2c1=O [NBI1099473] | 86.1 |  |
| CN(C)CCC(Sc1ccncc1F)c1ccccc1 (centres unmarked) [s_7____14325654____13940010] | 47.3 |  |
| CN(C)CCCN(C)Cc1c(-c2ccccc2F)nn(C)c1Cl [s_270004____10205916____16947572] | 17.6 |  |
| Cc1csc2ccnc(N3CCOCC4(COCCN4Cc4ccccc4)C3)c12 (centres unmarked) [s_27____15756872____16607386] | 62.1 |  |
| CN(C)CCN(Cc1ccsc1)C(=O)c1cc2c(Cl)cncc2s1 [s_11____10910498____13033826] | 79.5 |  |
| CN(C)CCCn1nc(-c2ccccc2Cl)c2ccccc2c1=O [GMD_16666] | 10.6 |  |
| Clc1ccccc1N(CCN1CCOCC1)Cc1cc2ncccc2s1 [s_2230____12297302____16648172] | 66 |  |
| Cc1cccc(CN(CCN(C)C)C(=O)C2=Cc3ccc(Cl)cc3OC2)c1 [s_22____3218898____13770932] | 94.3 |  |
| CN(C)CCN(Cc1nccn1C)c1cc(C(F)F)nc2ccc(Cl)cc12 [s_27____16636988____10213920] | 61 |  |
| CN(C)CCN(Cc1cccc(OCc2ccc(F)cc2)c1)Cc1nccn1C [s_270004____16637008____8127840] | 91.3 |  |
| CN(C)CCn1nc(-c2ccccn2)c2ccccc2c1=O [GMD_13601] | 16.6 |  |
| COCCN(CCN(C)C)C(=O)c1cccnc1Oc1ccc(Cl)cc1Cl [s_22____3489604____2009120] | 48.6 |  |
| Clc1ccccc1-n1ccc(CNC2(c3ncccn3)CCOCC2)n1 [s_2230____13270592____17316260] | -0.942 |  |
| COCCN(CCN(C)C)Cc1c(Cl)cccc1Oc1ccccc1 [s_270004____10206068____8363900] | 99 |  |
| CN(C)CCN(Cc1nccn1C)C(=O)c1ccn(-c2ccccc2Cl)n1 [s_22____16636986____2366818] | 25.8 |  |
| CN(C)CCCN(Cc1ccc(Cl)c(Cl)c1)C(=O)c1ccn2c1CSCC2 [s_527____1500312____16910956] | 66.8 |  |
| CN(C)CCN(Cc1ccccc1F)c1ncc(Cl)cc1Cl [s_27____7100864____12221638] | 86.4 |  |
| Cc1cccc2c(C(=O)N(CCN(C)C)Cc3ccccc3F)nccc12 [s_527____7348186____14188826] | 52.7 |  |
| CN(C)CCN(Cc1cccc(F)c1)C(=O)CSc1nc2ccccc2n1C [s_22____2224108____339636] | 75.6 |  |
| Cc1ccccc1Cn1c(CCN(C)C)nc2ccccc21 [GMD_8492] | 9.23 |  |
| Cc1cc2nc(Cl)nc(N(CCN(C)C)Cc3nccn3C)c2s1 [s_27____16636988____12112620] | 71.2 |  |
| CC1CCCCC1N=c1scc(-c2ccnn2C)n1N=Cc1ccc(Cl)cn1 (centres unmarked) [s_1____86334____13026574____11759950] | -2.58 |  |
| Cc1ccc2c(C(=O)N(CCN(C)C)c3ccccn3)ccnc2c1Cl [s_11____17828754____14179334] | 29.9 |  |
